From publication PMC5218480 (PLoS ONE, 2017)

Test system: MV-4-11 cells
Test: Gene expression microarray analysis (Affymetrix PrimeView) and GSEA
Assay type: cell-based, human
Set-up: RFU PODN (11730768_x_at) / Fold change /veh PODN (11730768_x_at) / RFU LINC00158 (11744669_a_at) / Fold change /veh LINC00158 (11744669_a_at) / RFU DUSP10 (11751237_a_at) / Fold change /veh DUSP10 (11751237_a_at) / RFU ID3 (11757404_x_at) / Fold change /veh ID3 (11757404_x_at) / RFU PLEKHG5 (11737974_s_at) / Fold change /veh PLEKHG5 (11737974_s_at) / RFU LRRC4B (11730491_at) / Fold change /veh LRRC4B (11730491_at) / RFU GIMAP4 (11747438_a_at) / Fold change /veh GIMAP4 (11747438_a_at) / RFU KRT8 (11758183_x_at) / Fold change /veh KRT8 (11758183_x_at) / RFU CNN1 (11734310_a_at) / Fold change /veh CNN1 (11734310_a_at) / RFU VPS37D (11726825_at) / Fold change /veh VPS37D (11726825_at) / RFU C10orf10 (11716522_x_at) / Fold change /veh C10orf10 (11716522_x_at) / RFU KIR2DL2 /// KIR2DL4 /// KIR2DL5A /// KIR2DL5B /// KIR2DS1 /// KIR2DS2 /// KIR2DS3 /// KIR2DS4 /// KIR3DL3 /// KIR3DL3 /// KIR3DS1 (11738374_at) / Fold change /veh KIR2DL2 /// KIR2DL4 /// KIR2DL5A /// KIR2DL5B /// KIR2DS1 /// KIR2DS2 /// KIR2DS3 /// KIR2DS4 /// KIR3DL3 /// KIR3DL3 /// KIR3DS1 (11738374_at) / RFU C1QL1 (11718748_at) / Fold change /veh C1QL1 (11718748_at) / RFU TMPRSS4 (11747572_a_at) / Fold change /veh TMPRSS4 (11747572_a_at) / RFU HAMP (11756126_x_at) / Fold change /veh HAMP (11756126_x_at) / RFU RNFT2 (11725882_a_at) / Fold change /veh RNFT2 (11725882_a_at) / RFU NR4A2 (11747474_a_at) / Fold change /veh NR4A2 (11747474_a_at) / RFU ABCC12 (11746883_a_at) / Fold change /veh ABCC12 (11746883_a_at) / RFU TMEM136 (11760407_x_at) / Fold change /veh TMEM136 (11760407_x_at) / RFU CLDN22 /// WWC2 (11732394_at) / Fold change /veh CLDN22 /// WWC2 (11732394_at) / RFU HLA-DPB1 (11760878_x_at) / Fold change /veh HLA-DPB1 (11760878_x_at) / RFU SPINT1 (11716480_a_at) / Fold change /veh SPINT1 (11716480_a_at) / RFU GAP43 (11754022_s_at) / Fold change /veh GAP43 (11754022_s_at) / RFU A4GNT (11735810_at) / Fold change /veh A4GNT (11735810_at) / RFU PRB3 (11715151_x_at) / Fold change /veh PRB3 (11715151_x_at) / RFU TUBB4B (11761932_at) / Fold change /veh TUBB4B (11761932_at) / RFU CAPN14 (11732068_a_at) / Fold change /veh CAPN14 (11732068_a_at) / RFU TMCC2 (11721928_a_at) / Fold change /veh TMCC2 (11721928_a_at) / RFU IRGQ (11745062_a_at) / Fold change /veh IRGQ (11745062_a_at) / RFU FAM174B (11720279_a_at) / Fold change /veh FAM174B (11720279_a_at) / RFU TMPRSS4 (11748680_a_at) / Fold change /veh TMPRSS4 (11748680_a_at) / RFU FAM212B (11763350_a_at) / Fold change /veh FAM212B (11763350_a_at) / RFU PLEKHG5 (11743358_a_at) / Fold change /veh PLEKHG5 (11743358_a_at) / RFU ZSCAN30 (11745921_a_at) / Fold change /veh ZSCAN30 (11745921_a_at) / RFU CMKLR1 (11741424_a_at) / Fold change /veh CMKLR1 (11741424_a_at) / RFU LOC101060620 /// MAPK8IP1 (11723275_at) / Fold change /veh LOC101060620 /// MAPK8IP1 (11723275_at) / RFU SPTSSB (11747773_x_at) / Fold change /veh SPTSSB (11747773_x_at) / RFU PRSS12 (11739890_at) / Fold change /veh PRSS12 (11739890_at) / RFU BIN1 (11741810_x_at) / Fold change /veh BIN1 (11741810_x_at) / RFU WNT11 (11732464_a_at) / Fold change /veh WNT11 (11732464_a_at) / RFU C10orf10 (11716521_a_at) / Fold change /veh C10orf10 (11716521_a_at) / RFU C5orf56 (11738089_at) / Fold change /veh C5orf56 (11738089_at) / RFU CYB561 (11721691_x_at) / Fold change /veh CYB561 (11721691_x_at) / RFU ANKRD19P (11752326_a_at) / Fold change /veh ANKRD19P (11752326_a_at) / RFU OR2T12 /// OR2T33 /// OR2T8 (11738714_s_at) / Fold change /veh OR2T12 /// OR2T33 /// OR2T8 (11738714_s_at) / RFU VCAN (11748164_a_at) / Fold change /veh VCAN (11748164_a_at) / RFU JSRP1 (11732532_at) / Fold change /veh JSRP1 (11732532_at) / RFU KRTAP10-11 (11738290_x_at) / Fold change /veh KRTAP10-11 (11738290_x_at) / RFU MYO3A (11730013_a_at) / Fold change /veh MYO3A (11730013_a_at) / RFU EBF3 (11725865_a_at) / Fold change /veh EBF3 (11725865_a_at) / RFU CAMK2N1 (11719241_x_at) / Fold change /veh CAMK2N1 (11719241_x_at) / RFU C5orf56 (11738088_a_at) / Fold change /veh C5orf56 (11738088_a_at) / RFU OLFML3 (11715873_a_at) / Fold change /veh OLFML3 (11715873_a_at) / RFU LOC100653217 /// NTM (11731650_a_at) / Fold change /veh LOC100653217 /// NTM (11731650_a_at) / RFU MAPK11 (11762145_a_at) / Fold change /veh MAPK11 (11762145_a_at) / RFU FIZ1 (11724087_x_at) / Fold change /veh FIZ1 (11724087_x_at) / RFU OASL (11726364_x_at) / Fold change /veh OASL (11726364_x_at) / RFU SOX15 (11748057_x_at) / Fold change /veh SOX15 (11748057_x_at) / RFU CD79A (11719716_a_at) / Fold change /veh CD79A (11719716_a_at) / RFU HIST1H1D (11736915_at) / Fold change /veh HIST1H1D (11736915_at) / RFU CASKIN2 (11723855_a_at) / Fold change /veh CASKIN2 (11723855_a_at) / RFU LOC730098 (11760151_x_at) / Fold change /veh LOC730098 (11760151_x_at) / RFU OR4N2 (11742367_at) / Fold change /veh OR4N2 (11742367_at) / RFU PRRT2 (11749266_a_at) / Fold change /veh PRRT2 (11749266_a_at) / RFU SNX32 (11753110_a_at) / Fold change /veh SNX32 (11753110_a_at) / RFU CDHR5 (11726645_a_at) / Fold change /veh CDHR5 (11726645_a_at) / RFU RCAN1 (11760418_a_at) / Fold change /veh RCAN1 (11760418_a_at) / RFU FAM167A (11723789_a_at) / Fold change /veh FAM167A (11723789_a_at) / RFU FAM26E (11764081_at) / Fold change /veh FAM26E (11764081_at) / RFU ISYNA1 (11749810_s_at) / Fold change /veh ISYNA1 (11749810_s_at) / RFU ACY1 (11761880_at) / Fold change /veh ACY1 (11761880_at) / RFU 11764098_at / Fold change /veh 11764098_at / RFU SAMD14 (11745864_x_at) / Fold change /veh SAMD14 (11745864_x_at) / RFU NPB (11741838_a_at) / Fold change /veh NPB (11741838_a_at) / RFU TMPRSS6 (11731388_a_at) / Fold change /veh TMPRSS6 (11731388_a_at) / RFU KRTAP10-2 (11738614_at) / Fold change /veh KRTAP10-2 (11738614_at) / RFU ARHGAP8 /// PRR5-ARHGAP8 (11727945_x_at) / Fold change /veh ARHGAP8 /// PRR5-ARHGAP8 (11727945_x_at) / RFU KRTAP5-7 /// NADSYN1 (11734609_at) / Fold change /veh KRTAP5-7 /// NADSYN1 (11734609_at) / RFU RASL12 (11751679_a_at) / Fold change /veh RASL12 (11751679_a_at) / RFU CDKN2B (11736163_a_at) / Fold change /veh CDKN2B (11736163_a_at) / RFU PRF1 (11729649_at) / Fold change /veh PRF1 (11729649_at) / RFU, ZNF638 /// ZNF638-IT1 / Fold change vs veh, ZNF638 /// ZNF638-IT1 / RFU, PANK3 / Fold change vs veh, PANK3 / RFU, SH3YL1 / Fold change vs veh, SH3YL1 / RFU, ZEB2 / Fold change vs veh, ZEB2 / RFU, NRIP1 / Fold change vs veh, NRIP1 / RFU, PTTG1IP / Fold change vs veh, PTTG1IP / RFU, CAPN2 / Fold change vs veh, CAPN2 / RFU, MED14 / Fold change vs veh, MED14 / RFU, SNORA58 / Fold change vs veh, SNORA58 / RFU, C1orf63 / Fold change vs veh, C1orf63 / RFU, LRRFIP1 / Fold change vs veh, LRRFIP1 / RFU, NDUFAF7 / Fold change vs veh, NDUFAF7 / RFU, SLC12A2 / Fold change vs veh, SLC12A2 / RFU, IBTK / Fold change vs veh, IBTK / RFU, ESF1 / Fold change vs veh, ESF1 / Fold change vs veh, TMEM50B / RFU, TAOK1 / Fold change vs veh, TAOK1 / RFU, ACBD3 / Fold change vs veh, ACBD3 / RFU, TMA16 / Fold change vs veh, TMA16 / RFU, RWDD3 / Fold change vs veh, RWDD3 / RFU, BCAT1 / Fold change vs veh, BCAT1 / RFU, EDEM3 / Fold change vs veh, EDEM3 / RFU, TMEM33 / Fold change vs veh, TMEM33 / RFU, WDR75 / Fold change vs veh, WDR75 / RFU, AHCTF1 / Fold change vs veh, AHCTF1 / RFU, TFRC / Fold change vs veh, TFRC / RFU, ZDHHC17 / Fold change vs veh, ZDHHC17 / RFU, NOM1 / Fold change vs veh, NOM1 / RFU, ARL8B / Fold change vs veh, ARL8B / RFU, ZBTB11 / Fold change vs veh, ZBTB11 / RFU, TAMM41 / Fold change vs veh, TAMM41 / RFU, KIAA1704 /// LOC100996395 / Fold change vs veh, KIAA1704 /// LOC100996395 / RFU, ING1 / Fold change vs veh, ING1 / RFU, TRMT61B / Fold change vs veh, TRMT61B / RFU, FUBP3 / Fold change vs veh, FUBP3 / RFU, TP53 / Fold change vs veh, TP53 / RFU, TNKS2 / Fold change vs veh, TNKS2 / RFU, ZFP14 / Fold change vs veh, ZFP14 / RFU, ACTR2 / Fold change vs veh, ACTR2 / RFU, PPP3R1 / Fold change vs veh, PPP3R1 / RFU, PIK3R1 / Fold change vs veh, PIK3R1 / RFU, HNRNPA1 / Fold change vs veh, HNRNPA1 / RFU, RNF170 / Fold change vs veh, RNF170 / RFU, ZNF28 / Fold change vs veh, ZNF28 / RFU, RNGTT / Fold change vs veh, RNGTT / RFU, OGT / Fold change vs veh, OGT / RFU, BRD1 / Fold change vs veh, BRD1 / RFU, MARS / Fold change vs veh, MARS / RFU, ZNF655 / Fold change vs veh, ZNF655 / RFU, FAHD1 / Fold change vs veh, FAHD1 / RFU, BDP1 / Fold change vs veh, BDP1 / RFU, LRRCC1 / Fold change vs veh, LRRCC1 / RFU, ARID1A / Fold change vs veh, ARID1A / RFU, ZNF146 / Fold change vs veh, ZNF146 / RFU, ZNF330 / Fold change vs veh, ZNF330 / RFU, GPN3 / Fold change vs veh, GPN3 / RFU, C9orf123 / Fold change vs veh, C9orf123 / RFU, N4BP2L2 / Fold change vs veh, N4BP2L2 / RFU, ARFIP1 / Fold change vs veh, ARFIP1 / RFU, FAM179B / Fold change vs veh, FAM179B / RFU, BCL10 / Fold change vs veh, BCL10 / RFU, UHRF1BP1L / Fold change vs veh, UHRF1BP1L / RFU, BET1 / Fold change vs veh, BET1 / RFU, CNOT2 / Fold change vs veh, CNOT2 / RFU, ZNF268 / Fold change vs veh, ZNF268 / Fold change vs veh, ZNF507 / RFU, DGCR2 / Fold change vs veh, DGCR2 / RFU, WDSUB1 / Fold change vs veh, WDSUB1 / Fold change vs veh, HSP90B1 /// MIR3652 / RFU, ADSS / Fold change vs veh, ADSS / RFU, GK / Fold change vs veh, GK / RFU, ZNF148 / Fold change vs veh, ZNF148 / RFU, TAF9 / Fold change vs veh, TAF9 / RFU, SLC1A5 / Fold change vs veh, SLC1A5 / RFU, SLMO2 / Fold change vs veh, SLMO2 / RFU, ABCC4 / Fold change vs veh, ABCC4 / RFU, LOC101060439 /// RAP1B / Fold change vs veh, LOC101060439 /// RAP1B / RFU, RFX7 / Fold change vs veh, RFX7 / RFU, GTPBP10 / Fold change vs veh, GTPBP10 / RFU, CNEP1R1 / Fold change vs veh, CNEP1R1 / RFU, BIVM-ERCC5 /// ERCC5 / Fold change vs veh, BIVM-ERCC5 /// ERCC5 / RFU, ILF3 / Fold change vs veh, ILF3 / RFU 11762660_at / Fold change /veh 11762660_at / RFU VCAN (11757783_s_at) / Fold change /veh VCAN (11757783_s_at) / RFU DDX43 (11728927_at) / Fold change /veh DDX43 (11728927_at) / RFU KRT8 (11758188_x_at) / Fold change /veh KRT8 (11758188_x_at) / RFU NKD1 (11759106_at) / Fold change /veh NKD1 (11759106_at) / RFU SRD5A1 (11742802_a_at) / Fold change /veh SRD5A1 (11742802_a_at) / RFU TPSAB1 /// TPSB2 (11721975_s_at) / Fold change /veh TPSAB1 /// TPSB2 (11721975_s_at) / RFU GSTM3 (11746129_a_at) / Fold change /veh GSTM3 (11746129_a_at) / RFU IL23R (11737362_x_at) / Fold change /veh IL23R (11737362_x_at) / RFU TMEM51 (11727254_a_at) / Fold change /veh TMEM51 (11727254_a_at) / RFU PIWIL2 (11732686_x_at) / Fold change /veh PIWIL2 (11732686_x_at) / RFU ORM1 (11744905_x_at) / Fold change /veh ORM1 (11744905_x_at) / RFU CCDC152 (11743942_at) / Fold change /veh CCDC152 (11743942_at) / RFU ECM1 (11717891_a_at) / Fold change /veh ECM1 (11717891_a_at) / RFU IL23R (11748794_a_at) / Fold change /veh IL23R (11748794_a_at) / RFU TNFAIP8L3 (11732012_x_at) / Fold change /veh TNFAIP8L3 (11732012_x_at) / RFU MBOAT4 (11741988_at) / Fold change /veh MBOAT4 (11741988_at) / RFU 11764193_at / Fold change /veh 11764193_at / RFU TMEM53 (11763286_at) / Fold change /veh TMEM53 (11763286_at) / RFU MAGEB2 (11727129_at) / Fold change /veh MAGEB2 (11727129_at) / RFU TMEM200A (11744735_a_at) / Fold change /veh TMEM200A (11744735_a_at) / RFU CCDC152 (11751479_a_at) / Fold change /veh CCDC152 (11751479_a_at) / RFU FAM211A (11726209_a_at) / Fold change /veh FAM211A (11726209_a_at) / RFU RGS16 (11746705_a_at) / Fold change /veh RGS16 (11746705_a_at) / RFU VCAN (11755009_s_at) / Fold change /veh VCAN (11755009_s_at) / RFU RHOB (11743442_s_at) / Fold change /veh RHOB (11743442_s_at) / RFU RGS16 (11720943_a_at) / Fold change /veh RGS16 (11720943_a_at) / RFU RGS16 (11720944_at) / Fold change /veh RGS16 (11720944_at) / RFU, VPS4B / Fold change vs veh, VPS4B / RFU, CREB1 / Fold change vs veh, CREB1 / RFU, DNAJC13 / Fold change vs veh, DNAJC13 / RFU, GNAQ / Fold change vs veh, GNAQ / RFU, CDK5R1 / Fold change vs veh, CDK5R1 / RFU, ZRANB3 / Fold change vs veh, ZRANB3 / RFU, CUL4A / Fold change vs veh, CUL4A / RFU, CCNY / Fold change vs veh, CCNY / RFU, UFL1 / Fold change vs veh, UFL1 / RFU, COG3 / Fold change vs veh, COG3 / RFU, DIAPH2 / Fold change vs veh, DIAPH2 / RFU, SKA2 / Fold change vs veh, SKA2 / RFU, AFF3 / Fold change vs veh, AFF3 / RFU, LMF1 / Fold change vs veh, LMF1 / RFU, IPO11 / Fold change vs veh, IPO11 / RFU, DFFB / Fold change vs veh, DFFB / RFU, FOXP1 / Fold change vs veh, FOXP1 / RFU, CARD8 / Fold change vs veh, CARD8 / RFU, STRN3 / Fold change vs veh, STRN3 / RFU, ADK / Fold change vs veh, ADK / RFU, RASSF2 / Fold change vs veh, RASSF2 / RFU, WIPF1 / Fold change vs veh, WIPF1 / RFU, LARP1B / Fold change vs veh, LARP1B / RFU, RASA1 / Fold change vs veh, RASA1 / RFU, RB1 / Fold change vs veh, RB1 / RFU, PPFIA1 / Fold change vs veh, PPFIA1 / RFU, MAT2A / Fold change vs veh, MAT2A / RFU, CCT5 / Fold change vs veh, CCT5 / RFU, WDR92 / Fold change vs veh, WDR92 / RFU, CUX1 / Fold change vs veh, CUX1 / RFU, TTC7A / Fold change vs veh, TTC7A / RFU, TMEM135 / Fold change vs veh, TMEM135 / RFU, DEPTOR / Fold change vs veh, DEPTOR / RFU, CPM / Fold change vs veh, CPM / RFU, DNAJB6 / Fold change vs veh, DNAJB6 / RFU, CACNA2D3 / Fold change vs veh, CACNA2D3 / RFU, DTX4 / Fold change vs veh, DTX4 / RFU, TFCP2 / Fold change vs veh, TFCP2 / RFU, GMCL1 /// GMCL1P1 / Fold change vs veh, GMCL1 /// GMCL1P1 / RFU, AEBP2 / Fold change vs veh, AEBP2 / RFU, SNHG1 /// SNORD22 /// SNORD25 /// SNORD26 /// SNORD27 /// SNORD28 /// SNORD29 /// SNORD31 / Fold change vs veh, SNHG1 /// SNORD22 /// SNORD25 /// SNORD26 /// SNORD27 /// SNORD28 /// SNORD29 /// SNORD31 / Fold change (Aza/veh), C12orf56 (ProbeSet 11735607_a_at) / Fold change (ACY-1035/veh), C12orf56 (ProbeSet 11735607_a_at) / Fold change (Aza/veh), FGFR1OP (ProbeSet 11751329_s_at) / Fold change (ACY-1035/veh), FGFR1OP (ProbeSet 11751329_s_at) / Fold change (Aza/veh), VPS36 (ProbeSet 11739960_a_at) / Fold change (ACY-1035/veh), VPS36 (ProbeSet 11739960_a_at) / RFU SYPL1 (11715823_x_at) / Fold change /veh SYPL1 (11715823_x_at) / RFU IGFBP7 (11715501_s_at) / Fold change /veh IGFBP7 (11715501_s_at) / RFU REEP3 (11722064_at) / Fold change /veh REEP3 (11722064_at) / RFU IGLL1 (11728026_x_at) / Fold change /veh IGLL1 (11728026_x_at): dose or concentration left out as unconfirmed
Settings: ProbeSet 11745789_a_at; LIST D

Nc1ccc(-c2cccs2)cc1NC(=O)c1ccc2c(c1)cc(C1CC1)n2CCN1CCOCC1 [ACY-1035]
Fold change vs veh, TMEM135: 0.97
